Measured values taken from the supplement of paper PMC10307832.

Assays:
Test in all cases: relative viability (nuclei count vs DMSO), 5 days (fraction); higher = more cells survive
EKVX = test system: EKVX
Procedure, shortened: (§1)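 Medians of duplicate plates are given as relative viability. That measure is the nuclei count in treated wells divided by the count in vehicle wells. Counts were taken on 4× images of lung cancer cell lines in 1536-well plates, 5 days after pin-tool dosing the day after seeding with one drug alone or a fixed anchor-drug dose plus five library-drug doses (not always all listed) in √10 steps.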

NCI-H1650 = test system: NCI-H1650
Procedure, shortened: as §1

LK-2 = test system: LK-2
Procedure, shortened: as §1

NCI-H1734 = test system: NCI-H1734
Procedure, shortened: as §1

CAL-12T = test system: CAL-12T
Procedure, shortened: as §1

NCI-H2342 = test system: NCI-H2342
Procedure, shortened: as §1

NCI-H2405 = test system: NCI-H2405
Procedure, shortened: as §1

NCI-H661 = test system: NCI-H661
Procedure, shortened: as §1

HCC-827 = test system: HCC-827
Procedure, shortened: as §1

LCLC-97TM1 = test system: LCLC-97TM1
Procedure, shortened: as §1

NCI-H1755 = test system: NCI-H1755
Procedure, shortened: as §1

NCI-H2228 = test system: NCI-H2228
Procedure, shortened: as §1

NCI-H1975 = test system: NCI-H1975
Procedure, shortened: as §1

HCC-15 = test system: HCC-15
Procedure, shortened: as §1

PC-3 [JPC-3] = test system: PC-3 [JPC-3]
Procedure, shortened: as §1

H3255 = test system: H3255
Procedure, shortened: as §1

RERF-LC-KJ = test system: RERF-LC-KJ
Procedure, shortened: as §1

NCI-H1563 = test system: NCI-H1563
Procedure, shortened: as §1

NCI-H520 = test system: NCI-H520
Procedure, shortened: as §1

NCI-H322M = test system: NCI-H322M
Procedure, shortened: as §1

NCI-H1355 = test system: NCI-H1355
Procedure, shortened: as §1

PC-14 = test system: PC-14
Procedure, shortened: as §1

## Cc1sc2c(c1C)C(c1ccc(Cl)cc1)=N[C@@H](CC(=O)OC(C)(C)C)c1nnc(C)n1-2 [JQ1] + Cc1nc(Nc2ncc(C(=O)Nc3c(C)cccc3Cl)s2)cc(N2CCN(CCO)CC2)n1 [Dasatinib] (partner 0.075 µM)
EKVX; first compound 0.04 µM
  relative viability: 0.517
EKVX; first compound 0.4 µM
  relative viability: 0.473
EKVX; first compound 1.265 µM
  relative viability: 0.45
EKVX; first compound 4 µM
  relative viability: 0.417
NCI-H1650; first compound 0.04 µM
  relative viability: 0.313
NCI-H1650; first compound 0.1265 µM
  relative viability: 0.272
NCI-H1650; first compound 0.4 µM
  relative viability: 0.201
NCI-H1650; first compound 1.265 µM
  relative viability: 0.134
NCI-H1650; first compound 4 µM
  relative viability: 0.143
LK-2; first compound 0.04 µM
  relative viability: 0.254
LK-2; first compound 0.1265 µM
  relative viability: 0.156
LK-2; first compound 0.4 µM
  relative viability: 0.162
LK-2; first compound 1.265 µM
  relative viability: 0.108
LK-2; first compound 4 µM
  relative viability: 0.112
NCI-H1734; first compound 0.04 µM
  relative viability: 0.55
NCI-H1734; first compound 0.1265 µM
  relative viability: 0.444
NCI-H1734; first compound 0.4 µM
  relative viability: 0.457
NCI-H1734; first compound 1.265 µM
  relative viability: 0.454
NCI-H1734; first compound 4 µM
  relative viability: 0.382
CAL-12T; first compound 0.04 µM
  relative viability: 0.427
CAL-12T; first compound 0.1265 µM
  relative viability: 0.332
CAL-12T; first compound 0.4 µM
  relative viability: 0.228
CAL-12T; first compound 1.265 µM
  relative viability: 0.144
CAL-12T; first compound 4 µM
  relative viability: 0.213
NCI-H2342; first compound 0.04 µM
  relative viability: 0.315
NCI-H2342; first compound 0.1265 µM
  relative viability: 0.304
NCI-H2342; first compound 0.4 µM
  relative viability: 0.328
NCI-H2342; first compound 1.265 µM
  relative viability: 0.286
NCI-H2342; first compound 4 µM
  relative viability: 0.299
NCI-H2405; first compound 0.04 µM
  relative viability: 0.19
NCI-H2405; first compound 0.1265 µM
  relative viability: 0.195
NCI-H2405; first compound 0.4 µM
  relative viability: 0.19
NCI-H2405; first compound 1.265 µM
  relative viability: 0.169
NCI-H2405; first compound 4 µM
  relative viability: 0.147
NCI-H661; first compound 0.04 µM
  relative viability: 0.814
NCI-H661; first compound 0.1265 µM
  relative viability: 0.564
NCI-H661; first compound 0.4 µM
  relative viability: 0.558
NCI-H661; first compound 1.265 µM
  relative viability: 0.379
NCI-H661; first compound 4 µM
  relative viability: 0.556
HCC-827; first compound 0.04 µM
  relative viability: 0.371
HCC-827; first compound 0.4 µM
  relative viability: 0.227
HCC-827; first compound 1.265 µM
  relative viability: 0.438
HCC-827; first compound 4 µM
  relative viability: 0.421
LCLC-97TM1; first compound 0.04 µM
  relative viability: 0.896
LCLC-97TM1; first compound 0.1265 µM
  relative viability: 0.906
LCLC-97TM1; first compound 0.4 µM
  relative viability: 0.645
LCLC-97TM1; first compound 1.265 µM
  relative viability: 0.694
LCLC-97TM1; first compound 4 µM
  relative viability: 0.352
NCI-H1755; first compound 0.04 µM
  relative viability: 0.421
NCI-H1755; first compound 0.1265 µM
  relative viability: 0.277
NCI-H1755; first compound 0.4 µM
  relative viability: 0.373
NCI-H1755; first compound 1.265 µM
  relative viability: 0.343
NCI-H1755; first compound 4 µM
  relative viability: 0.2
NCI-H2228; first compound 0.04 µM
  relative viability: 0.416
NCI-H2228; first compound 0.1265 µM
  relative viability: 0.476
NCI-H2228; first compound 0.4 µM
  relative viability: 0.515
NCI-H2228; first compound 1.265 µM
  relative viability: 0.189
NCI-H2228; first compound 4 µM
  relative viability: 0.245
NCI-H1975; first compound 0.04 µM
  relative viability: 0.414
NCI-H1975; first compound 0.1265 µM
  relative viability: 0.316
NCI-H1975; first compound 0.4 µM
  relative viability: 0.305
NCI-H1975; first compound 1.265 µM
  relative viability: 0.227
NCI-H1975; first compound 4 µM
  relative viability: 0.241
HCC-15; first compound 0.04 µM
  relative viability: 0.524
HCC-15; first compound 0.4 µM
  relative viability: 0.5
HCC-15; first compound 1.265 µM
  relative viability: 0.339
HCC-15; first compound 4 µM
  relative viability: 0.227
PC-3 [JPC-3]; first compound 0.04 µM
  relative viability: 0.998
PC-3 [JPC-3]; first compound 0.1265 µM
  relative viability: 1.02
PC-3 [JPC-3]; first compound 0.4 µM
  relative viability: 1.16
PC-3 [JPC-3]; first compound 1.265 µM
  relative viability: 0.96
PC-3 [JPC-3]; first compound 4 µM
  relative viability: 0.578
H3255; first compound 0.04 µM
  relative viability: 0.438
H3255; first compound 0.1265 µM
  relative viability: 0.319
H3255; first compound 0.4 µM
  relative viability: 0.504
H3255; first compound 1.265 µM
  relative viability: 0.317
H3255; first compound 4 µM
  relative viability: 0.269
RERF-LC-KJ; first compound 0.04 µM
  relative viability: 0.763
RERF-LC-KJ; first compound 0.1265 µM
  relative viability: 0.646
RERF-LC-KJ; first compound 0.4 µM
  relative viability: 0.72
RERF-LC-KJ; first compound 1.265 µM
  relative viability: 0.576
RERF-LC-KJ; first compound 4 µM
  relative viability: 0.332
NCI-H1563; first compound 0.04 µM
  relative viability: 0.446
NCI-H1563; first compound 0.1265 µM
  relative viability: 0.405
NCI-H1563; first compound 0.4 µM
  relative viability: 0.533
NCI-H1563; first compound 1.265 µM
  relative viability: 0.443
NCI-H1563; first compound 4 µM
  relative viability: 0.362
NCI-H520; first compound 0.04 µM
  relative viability: 0.206
NCI-H520; first compound 0.1265 µM
  relative viability: 0.196
NCI-H520; first compound 0.4 µM
  relative viability: 0.207
NCI-H520; first compound 1.265 µM
  relative viability: 0.159
NCI-H520; first compound 4 µM
  relative viability: 0.221
NCI-H322M; first compound 0.04 µM
  relative viability: 0.234
NCI-H322M; first compound 0.1265 µM
  relative viability: 0.245
NCI-H322M; first compound 0.4 µM
  relative viability: 0.24
NCI-H322M; first compound 1.265 µM
  relative viability: 0.225
NCI-H322M; first compound 4 µM
  relative viability: 0.239
NCI-H1355; first compound 0.04 µM
  relative viability: 0.774
NCI-H1355; first compound 0.1265 µM
  relative viability: 0.578
NCI-H1355; first compound 0.4 µM
  relative viability: 0.617
NCI-H1355; first compound 1.265 µM
  relative viability: 0.486
NCI-H1355; first compound 4 µM
  relative viability: 0.447
PC-14; first compound 0.04 µM
  relative viability: 0.283
PC-14; first compound 0.1265 µM
  relative viability: 0.187
PC-14; first compound 0.4 µM
  relative viability: 0.119
PC-14; first compound 1.265 µM
  relative viability: 0.14
PC-14; first compound 4 µM
  relative viability: 0.05
